Assay results taken from patent US20210127671A1, “HYPERSENSITIVE RESPONSE ELICITOR PEPTIDES AND USE THEREOF” (priority 2015, published 2021).
Read-outs that look alike come from different tables or passages of the source. Peptide text beside a SMILES is read from it.

How the values were obtained:
[1] = pH 8
[2] = 50° C., 50 mM TES, pH 8.0 and 30% isopropanol
[3] = 0.2% AI in deionized water, 48 hours at room temperature
[4] = Stability against chemical degradation in water or pH buffers at 50° C. (HPLC); conditions: for precipitation during stability test: 0.2% AI, 0.25% Proxel GXL, 50 mM buffers, 50° C.
Experimental: Briefly, the stability and resistance to chemical degradation of peptides can be assessed as follows using peptide samples having an initial purity of at least about 80%, at least about 82%, at least about 84%, at least about 86%, at least about 88%, at least about 90%, at least about 92%, at least about 94%, at least about 96%, or at least about 98%. For water stability, the peptide is dissolved directly in de-ionized water. For chemical degradation tests, the peptide is dissolved in an aqueous solution containing 50 mM pH buffer and 0.25% Proxel GXL. Exemplary pH buffers include, without limitation: (i) Citrate pH 5.6; (ii) MES pH 6.2; (iii) MOPS pH 6.5; (iv) imidazole pH 7.0; (v) Citrate pH 7.2; (vi) EDDS, pH 7.3; (vii) EDTA pH 8.0; (viii) sodium phosphate pH 8.0; or (ix) TES pH 8.0. Peptides are first dissolved in the aqueous solution at a concentration of 0.5 mg/ml. […] An initial sample of the peptide is removed, diluted 10× with water, and analyzed by reverse-phase HPLC. Briefly, 20 μl of the sample is injected into the solvent flow of an HPLC instrument and analyzed on a C18 HPLC column (YMC ProPack C18, YMC, Japan, or C18 Stablebond, Agilent Technologies, USA) using either a triethylamine phosphate in water/acetonitrile gradient or a 0.1% TFA in water/0.1% TFA in acetonitrile gradient to separate different peptide species. Eluting peptides are monitored by UV absorbance at 218 nm and quantified based on the area under the peak. The area under the peak for the initial peptide sample is treated as the standard for relative quantification in subsequent runs. At regular intervals (e.g., 1, 3, 7, 10, 14, 17, and 21 days), each peptide sample is surveyed and analyzed by HPLC as described above.
Stability against chemical degradation was assessed in various pH buffers by creating 0.2% AI solutions of pure, chemically synthesized peptide in deionized water, 0.25% weight to volume of Proxel® GXL (biocide), and 50 millimolar (mM) of eight buffers (separately) as follows: MES pH 5.6, MOPS pH 6.5, Citrate pH 7.2, EDDS pH 7.3, EDTA pH 8, Phosphate pH 8, Imidazole pH 8, and TES pH 8.

[5] = test system: Soy; test: Growth test, foliar spray, soy; assay type: in vivo
Experimental: For growth tests, corn and soy seeds were planted in flats with 2 seeds per cell within the flat at a greenhouse facility. The seeds were allowed to germinate and the smaller plant is culled, leaving one plant per cell. Once the first true leaves are fully expanded and the second leaves are beginning to expand, the plants were initially measured for height. This was performed by stretching the highest leaf upward and measuring the distance to the soil. Peptides were dissolved in water at the indicated concentrations (below). The plants were then treated with a foliar spray using widely available spray bottles until liquid was dripping from the leaves. 4 flats of 14 plants each were treated per condition (peptide or control). Corn and soy were treated as indicated in Table 13 and compared with matched water-treated control plants. The plants were allowed to grow for 14 days. The height of the plants was again measured and compared to the original height to quantify growth. In some cases, the plants were allowed to grow without watering for 2-4 days until the onset of wilting and drought stress. At this time, the above-ground portions of the plants were harvested and weighed to determine the fresh mass. […] Growth, dry biomass, and fresh mass are calculated as the % increase over the water-treated control.

[6] = not given; remark: listed apart in the source

With `CC[C@H](C)[C@H](NC(=O)[C@H](CCC(=O)O)NC(=O)[C@H](CCC(=O)O)NC(=O)[C@H](CCC(=O)O)NC(=O)[C@H](CCC(=O)O)NC(=O)[C@H](CCC(=O)O)NC(=O)[C@@H](N)CO)C(=O)N[C@@H](C)C(=O)N[C@@H](CCCCN)C(=O)N[C@@H](CC(C)C)C(=O)N[C@H](C(=O)N[C@@H](CO)C(=O)N[C@@H](C)C(=O)N[C@@H](CC(C)C)C(=O)N[C@H](C(=O)N[C@@H](CCC(=O)O)C(=O)N[C@@H](CO)C(=O)N[C@@H](CC(C)C)C(=O)N[C@@H](CC(C)C)C(=O)N[C@@H](CCC(=O)O)C(=O)O)[C@@H](C)CC)[C@@H](C)CC` [Peptide P15-59] (H-SEEEEEIAKLISALIESLLE-OH; N-terminus and C-terminus assumed) the solubility [1] was > 10000 µg/mL.
With `CSCC[C@H](NC(=O)[C@H](CC(C)C)NC(=O)[C@H](C)NC(=O)[C@H](CCC(N)=O)NC(=O)[C@H](CCSC)NC(=O)[C@@H]1CCCN1C(=O)[C@H](CC(=O)O)NC(=O)[C@@H](N)CCC(N)=O)C(=O)N[C@@H](CCC(N)=O)C(=O)N[C@@H](CC(C)C)C(=O)N[C@@H](CC(C)C)C(=O)N[C@@H](CCC(=O)O)C(=O)N[C@@H](CC(=O)O)C(=O)N[C@@H](CC(C)C)C(=O)N[C@H](C(=O)N[C@@H](CCCCN)C(=O)N[C@@H](CC(C)C)C(=O)N[C@@H](CC(C)C)C(=O)N[C@@H](CCCCN)C(=O)O)C(C)C` [Peptide P14d] (H-QDPMQALMQLLEDLVKLLK-OH; N-terminus and C-terminus assumed) the “chemical stability for >50 days” value [2] was “around 50%”.
For `CC[C@H](C)[C@H](NC(=O)[C@H](CC(N)=O)NC(=O)[C@H](CO)NC(=O)[C@H](CCC(N)=O)NC(=O)[C@H](CO)NC(=O)[C@H](CC(=O)O)NC(=O)[C@H](CC(N)=O)NC(=O)[C@@H]1CCCN1C(=O)[C@H](CCCCN)NC(=O)[C@H](CO)NC(=O)[C@H](C)NC(=O)[C@H](CC(=O)O)NC(=O)[C@H](CCC(N)=O)NC(=O)[C@@H]1CCCN1C(=O)[C@H](CC(N)=O)NC(=O)[C@H](CCC(N)=O)NC(=O)[C@@H](NC(=O)[C@@H](NC(=O)[C@H](CO)NC(=O)[C@H](CC(=O)O)NC(=O)[C@@H]1CCCN1C(=O)[C@@H](NC(=O)CNC(=O)[C@H](Cc1ccccc1)NC(=O)[C@@H](N)CC(N)=O)[C@@H](C)O)[C@@H](C)O)C(C)C)C(=O)N[C@@H](C)C(=O)N[C@@H](CCCCN)C(=O)N[C@@H](CC(C)C)C(=O)N[C@H](C(=O)N[C@@H](CO)C(=O)N[C@@H](C)C(=O)N[C@@H](CC(C)C)C(=O)N[C@H](C(=O)N[C@@H](CCSC)C(=O)N[C@@H](CO)C(=O)N[C@@H](CC(C)C)C(=O)N[C@@H](CC(C)C)C(=O)N[C@@H](CCC(N)=O)C(=O)N[C@@H](CCSC)C(=O)O)[C@@H](C)CC)[C@@H](C)CC` [Peptide P15a] (H-NFGTPDSTVQNPQDASKPNDSQSNIAKLISALIMSLLQM-OH; N-terminus and C-terminus assumed), the solubility [1] was > 10000 µg/mL.
In the case of `CC[C@H](C)[C@H](NC(=O)CNC(=O)[C@H](CCC(N)=O)NC(=O)[C@@H](N)CC(N)=O)C(=O)N[C@@H](CO)C(=O)N[C@@H](CCC(=O)O)C(=O)N[C@@H](CCCCN)C(=O)N[C@@H](CCC(N)=O)C(=O)N[C@@H](CC(C)C)C(=O)N[C@@H](CC(=O)O)C(=O)N[C@@H](CCC(N)=O)C(=O)N[C@@H](CC(C)C)C(=O)N[C@@H](CC(C)C)C(=O)N[C@H](C(=O)N[C@@H](CCC(N)=O)C(=O)N[C@@H](CC(C)C)C(=O)N[C@H](C(=O)N[C@@H](CCSC)C(=O)N[C@@H](C)C(=O)N[C@@H](CC(C)C)C(=O)N[C@@H](CC(C)C)C(=O)N[C@@H](CCC(N)=O)C(=O)N[C@@H](CCC(N)=O)C(=O)O)[C@@H](C)CC)[C@@H](C)O` [Peptide P1] (H-NQGISEKQLDQLLTQLIMALLQQ-OH; N-terminus and C-terminus assumed), the solubility is reported as < 1000 µg/mL, the solubility [3] is reported as “largely insoluble in water” and the “% of the material remaining after 7 days” value ([4]; 50 mM EDDS, pH 7.3) is reported as 10%. For the same compound, the “better stability than the mutants after 14 days” value ([4]; 50 mM MES pH 6.0, 50° C.) was 10-30%, the “% degraded after 1 week of incubation” value ([4]; 50 mM TES, pH 8.0, 80° C. as printed) was “more than 90%” and the “precipitation during stability test” value [4] was “Precipitation of P1 was observed after several days”. For the same compound, the “stability (in words)” value ([4]; dissolved in water, FIG. 1) was “modestly stable”, the solubility behaviour ([4]; lower pH: deionized water, 50 mM citrate pH 5.6, 50 mM MES pH 6.0) was “solubility problems” and the “solubility (in words)” value ([4]; phosphate, pH 8.0) was “some cloudiness in solution”. The “stability (in words)” value ([4]; phosphate, pH 8.0) was “appears to outperform the stability of the mutants”.
For “SEGISEKQLDQLLSQLIEALLQP [Peptide P4-14S-18E]”, the “Growth (% difference)” value ([5]; Rate 2.0, 14 days, % increase over water-treated control) was 9.0 % difference and the “Dry biomass (% difference)” value ([5]; Rate 2.0, % increase over water-treated control) was 0.8 % difference.
With `CC[C@H](C)[C@H](NC(=O)[C@H](CC(N)=O)NC(=O)[C@H](CO)NC(=O)[C@H](CCC(N)=O)NC(=O)[C@H](CO)NC(=O)[C@H](CC(=O)O)NC(=O)[C@H](CC(N)=O)NC(=O)[C@@H]1CCCN1C(=O)[C@@H](N)CCCCN)C(=O)N[C@@H](C)C(=O)N[C@@H](CCCCN)C(=O)N[C@@H](CC(C)C)C(=O)N[C@H](C(=O)N[C@@H](CO)C(=O)N[C@@H](C)C(=O)N[C@@H](CC(C)C)C(=O)N[C@H](C(=O)N[C@@H](CCSC)C(=O)N[C@@H](CO)C(=O)N[C@@H](CC(C)C)C(=O)N[C@@H](CC(C)C)C(=O)N[C@@H](CCC(N)=O)C(=O)O)[C@@H](C)CC)[C@@H](C)CC` [Peptide P15b] (H-KPNDSQSNIAKLISALIMSLLQ-OH; N-terminus and C-terminus assumed) the “solubility at 0.2% w/v” value ([6]; 50 mM MES pH 6.0, and MOPS pH 6.5) was “at least partially soluble”, the “solubility at 0.2% w/v” value ([6]; 50 mM of each of citrate pH ~5.2, citrate pH 7.0, phosphate pH 7.0, TES pH 8.0, EDTA pH 8.0, EDDS pH 7.0) was “insoluble” and the “solubility at 0.2% w/v” value ([6]; water) was “partially soluble”.
With `CC[C@H](C)[C@H](NC(=O)CNC(=O)[C@H](CCC(N)=O)NC(=O)[C@@H](N)CO)C(=O)N[C@@H](CO)C(=O)N[C@@H](CCC(=O)O)C(=O)N[C@@H](CCCCN)C(=O)N[C@@H](CCC(N)=O)C(=O)N[C@@H](CC(C)C)C(=O)N[C@@H](CC(=O)O)C(=O)N[C@@H](CCC(N)=O)C(=O)N[C@@H](CC(C)C)C(=O)N[C@@H](CC(C)C)C(=O)N[C@@H](CS)C(=O)N[C@@H](CCC(N)=O)C(=O)N[C@@H](CC(C)C)C(=O)N[C@H](C(=O)N[C@@H](CCC(N)=O)C(=O)N[C@@H](C)C(=O)N[C@@H](CC(C)C)C(=O)N[C@@H](CC(C)C)C(=O)N[C@@H](CCC(N)=O)C(=O)N1CCC[C@H]1C(=O)O)[C@@H](C)CC` [Peptide P4] (H-SQGISEKQLDQLLCQLIQALLQP-OH; N-terminus and C-terminus assumed) the solubility was ≥ 100000 µg/mL, the solubility [3] was “completely soluble” and the “precipitation during stability test” value [4] was “remained in solution”. The “solution stability (in words)” value ([4]; aqueous solution) was “very poor stability”.
